Series [1] relates to MDCK. Nature of the series: Efflux ratio of permeability from […] side of wild type MDCK2 cells. Type of series: ADME, cell-based, Canis lupus familiaris. The following applies: dog.
The test system of series [2] is MDCK. As to the kind of experiment: Efflux ratio of permeability from […] side of MDCK2 cells over expressing human Pgp. Type of series: ADME, cell-based, Canis lupus familiaris. The following applies: dog.
In series [3] the target is T1, Renin (Homo sapiens, UniProt P00797).
T1 sequence (P00797 whole entry): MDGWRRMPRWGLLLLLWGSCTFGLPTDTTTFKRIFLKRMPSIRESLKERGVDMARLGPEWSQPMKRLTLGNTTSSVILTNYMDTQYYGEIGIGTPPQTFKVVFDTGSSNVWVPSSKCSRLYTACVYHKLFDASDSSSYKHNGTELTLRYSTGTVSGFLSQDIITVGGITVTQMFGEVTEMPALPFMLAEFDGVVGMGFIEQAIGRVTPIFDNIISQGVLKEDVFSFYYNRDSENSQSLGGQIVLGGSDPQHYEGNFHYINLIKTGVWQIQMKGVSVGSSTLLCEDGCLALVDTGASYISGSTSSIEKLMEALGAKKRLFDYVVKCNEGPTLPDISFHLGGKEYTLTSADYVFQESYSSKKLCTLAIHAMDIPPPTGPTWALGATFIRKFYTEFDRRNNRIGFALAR
As to the kind of experiment: Inhibition of renin.

Series [4] deals with T1, Renin. Nature of the series: Inhibition of human plasma renin. Type of series: cell-free.
In a further series the target is Cathepsin D (Homo sapiens, UniProt P07339). As to the kind of experiment: Inhibition of cathepsin D.
Cathepsin D, sequence (P07339 65-162 limits assumed): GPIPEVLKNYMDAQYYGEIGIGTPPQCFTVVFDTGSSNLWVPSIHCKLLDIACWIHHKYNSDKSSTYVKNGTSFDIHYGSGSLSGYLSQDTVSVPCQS
Cathepsin D, sequence (P07339 169-412 limits assumed): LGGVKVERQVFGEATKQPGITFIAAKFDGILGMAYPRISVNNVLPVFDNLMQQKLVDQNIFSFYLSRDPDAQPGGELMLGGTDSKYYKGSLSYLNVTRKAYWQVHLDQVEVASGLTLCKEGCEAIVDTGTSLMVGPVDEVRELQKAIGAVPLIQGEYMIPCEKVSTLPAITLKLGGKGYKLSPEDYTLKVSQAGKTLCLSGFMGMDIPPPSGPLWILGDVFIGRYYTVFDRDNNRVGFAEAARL
The next series deals with Beta-secretase 1 (Homo sapiens, UniProt P56817). Nature of the series: Inhibition of BACE1.
Beta-secretase 1, sequence (P56817 whole entry): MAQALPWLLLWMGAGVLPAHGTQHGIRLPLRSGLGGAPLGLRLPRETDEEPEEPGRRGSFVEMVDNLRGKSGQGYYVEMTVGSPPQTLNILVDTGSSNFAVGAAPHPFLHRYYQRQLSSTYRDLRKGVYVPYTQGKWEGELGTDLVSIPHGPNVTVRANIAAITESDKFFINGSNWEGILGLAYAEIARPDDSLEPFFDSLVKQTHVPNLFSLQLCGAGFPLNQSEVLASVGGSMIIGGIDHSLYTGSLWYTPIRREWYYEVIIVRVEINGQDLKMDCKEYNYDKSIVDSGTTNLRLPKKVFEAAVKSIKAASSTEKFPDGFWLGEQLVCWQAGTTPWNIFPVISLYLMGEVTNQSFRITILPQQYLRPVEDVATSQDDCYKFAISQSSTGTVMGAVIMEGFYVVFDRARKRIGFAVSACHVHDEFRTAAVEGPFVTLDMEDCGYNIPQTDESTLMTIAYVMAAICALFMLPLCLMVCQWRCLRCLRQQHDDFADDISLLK
A short description of series [5]: Intrinsic clearance in human liver microsomes. Type of series: ADME, Microsome. For orientation: Liver microsomes are vesicles of endoplasmic reticulum, rich in cytochrome P450 enzymes.
The nature of series [6]: Apparent permeability across wild type MDCK cells. The following applies: dog. Type of series: ADME, cell-based, Canis lupus familiaris.
Another series has as its system human Pgp. As to the kind of experiment: Apparent permeability across MDCK cells transfected with human Pgp. Type of series: ADME, cell-based, Canis lupus familiaris. The following applies: dog, MDCK-MDR1.

Take `COCCCOc1cc(C[C@@H](C[C@H](N)[C@@H](O)C[C@H](C(=O)NCC(C)(C)C(N)=O)C(C)C)C(C)C)ccc1OC`: the Ratio in the series on MDCK [1] was determined as 0.7; in the series on MDCK [2] it was 1.5.
In general, Ki refers to a dissociation constant, usually derived from enzyme kinetics or from competition with a known ligand. Read a high Ki as a looser hold on the target. By IC50 is commonly meant the concentration at which inhibition is half-maximal. As usually defined, the microsomal CLint is a measure of how fast metabolising enzymes remove a compound, apart from limits set by blood flow. A high value points to faster metabolism. `CC(C)[C@H](C[C@H](O)[C@H](COCc1ccccc1)NC(=O)c1cc(C(=O)N[C@H](C)c2ccccc2)cc(N(C)S(C)(=O)=O)c1)C(=O)N[C@H](C(=O)NCc1ccccc1)C(C)C`: the Ki amounted to 21 nM on Renin [3] and 3.3 nM on Cathepsin D. Moreover, the results for the IC50 on Renin [4] (read-out: IC50) and at Beta-secretase 1 were 38 nM and 30 nM, respectively. The molecule also had a microsomal CLint in series [5] of 260 µL/min/mg.
On to `COc1ccc(C2NC(=O)c3cc(cc(N(C)S(C)(=O)=O)c3)C(=O)N[C@H]([C@@H](O)C[C@H](C(=O)NCC(C)C)C(C)C)COCc3cccc2c3)cc1` (some centres not stated), for which the inhibitory constant (Ki) amounted to 130 nM at Renin [3] and 760 nM on Cathepsin D. Besides, the midpoint of inhibition on Beta-secretase 1, the IC50, lay at 3100 nM.
In general, Papp refers to the rate of passage across a membrane or cell layer, normalised by area and donor concentration. Consider `CC(C)CNC(=O)[C@@H](C[C@H](O)[C@@H]1COCc2cccc(c2)C(c2ccccc2)NC(=O)c2cc(cc(N(C)S(C)(=O)=O)c2)C(=O)N1)C(C)C` (some centres not stated), for which the IC50 came to 56 nM on Renin [4] and 3700 nM at Beta-secretase 1. On Cathepsin D, this molecule returned an inhibitory constant (Ki) of 200 nM. Moreover, the Papp (in [6]; in the series on human Pgp) was 0.1 ×10⁻⁶ cm/s throughout.
As to `COCCCC1NC(=O)c2cc(cc(N(C)S(C)(=O)=O)c2)C(=O)N[C@H]([C@@H](O)C[C@H](C(=O)NCC(C)C)C(C)C)COCc2cccc1c2` (some centres not stated), the Ki on Renin [3] was 450 nM; on Cathepsin D, 460 nM. This molecule gave a concentration for half-maximal inhibition (IC50) against Beta-secretase 1 of 1900 nM.
On the same counts, the results for `COCCOC1CCc2cc(cc(N(C)S(C)(=O)=O)c2)C(=O)N[C@H]([C@@H](O)C[C@H](C(=O)NCC(C)C)C(C)C)COCc2cccc1c2` (some centres not stated) are over 5000 nM, over 5000 nM and over 10000 nM.
Regarding `COCCOC1CCCc2cc(cc(N(C)S(C)(=O)=O)c2)C(=O)N[C@H]([C@@H](O)C[C@H](C(=O)NCC(C)C)C(C)C)COCc2cccc1c2` (some centres not stated), the results for the Ki at Renin [3] and on Cathepsin D were 940 nM and over 5000 nM, respectively. The molecule further gave an IC50 on Beta-secretase 1 of over 10000 nM.
On the same counts, the results for `CNC(=O)[C@@H](C[C@H](O)[C@@H]1COCc2cccc(c2)C(c2ccccc2)NC(=O)c2cc(cc(N(C)S(C)(=O)=O)c2)C(=O)N1)C(C)C` (some centres not stated) are 340 nM, 1700 nM and over 10000 nM.

The values are drawn from ChEMBL document CHEMBL1641535, “Design and synthesis of potent macrocyclic renin inhibitors” (Bioorg Med Chem Lett, 2011).
